Measurements from US10745396B2, “Pesticidally active polycyclic derivatives with sulfur containing substituents” (Syngenta Participations AG, priority 2015, dated 2020).

Experiments:
Format in all cases: in vivo
[1] = test system: Myzus persicae (Green Peach Aphid); assay: Myzus persicae systemic activity, pea seedling roots in test solution; settings: 144 h, test rate of 24 ppm, 6 days after placing seedlings into test solutions
Description: Example B6: Myzus persicae (Green Peach Aphid): Systemic Activity
Roots of pea seedlings infested with an aphid population of mixed ages were placed directly into aqueous test solutions prepared from 10′000 DMSO stock solutions. The samples were assessed for mortality 6 days after placing seedlings into test solutions.

[2] = test system: Spodoptera littoralis (Egyptian Cotton Leaf Worm); assay: Spodoptera littoralis, cotton leaf discs, L1 larvae; settings: foliar, 72 h, application rate of 200 ppm, 3 days after infestation
Description: Example B8: Spodoptera littoralis (Egyptian Cotton Leaf Worm)
Cotton leaf discs were placed onto agar in 24-well microtiter plates and sprayed with aqueous test solutions prepared from 10′000 ppm DMSO stock solutions. After drying the leaf discs were infested with five L1 larvae. The samples were assessed for mortality, anti-feeding effect, and growth inhibition in comparison to untreated samples 3 days after infestation. Control of Spodoptera littoralis by a test sample is given when at least one of the categories mortality, anti-feedant effect, and growth inhibition is higher than the untreated sample.

[3] = test system: Bemisia tabaci (Cotton White Fly); assay: Bemisia tabaci feeding/contact activity, cotton leaf discs; settings: foliar, 144 h, application rate of 200 ppm, 6 days after incubation, adult white flies
Description: Example B1: Bemisia tabaci (Cotton White Fly): Feeding/Contact Activity
Cotton leaf discs were placed on agar in 24-well microtiter plates and sprayed with aqueous test solutions prepared from 10′000 ppm DMSO stock solutions. After drying the leaf discs were infested with adult white flies. The samples were checked for mortality 6 days after incubation.

[4] = test system: Euschistus heros (Neotropical Brown Stink Bug); assay: Euschistus heros, soybean leaves on agar, N2 nymphs; settings: 120 h, application rate of 200 ppm, 5 days after infestation, read-out: effect in at least one of the two categories (mortality or growth inhibition)
Description: Example B3: Euschistus heros (Neotropical Brown Stink Bug)
Soybean leaves on agar in 24-well microtiter plates were sprayed with aqueous test solutions prepared from 10′000 ppm DMSO stock solutions. After drying the leaves were infested with N2 nymphs. The samples were assessed for mortality and growth inhibition in comparison to untreated samples 5 days after infestation.

[5] = test system: Thrips tabaci (Onion Thrips); assay: Thrips tabaci feeding/contact activity, sunflower leaf discs; settings: foliar, 144 h, application rate of 200 ppm, 6 days after infestation
Description: Example B11: Thrips tabaci (Onion Thrips) Feeding/Contact Activity
Sunflower leaf discs were placed on agar in 24-well microtiter plates and sprayed with aqueous test solutions prepared from 10′000 ppm DMSO stock solutions. After drying the leaf discs were infested with a thrips population of mixed ages. The samples were assessed for mortality 6 days after infestation.

[6] = test system: Spodoptera littoralis (Egyptian Cotton Leaf Worm); assay: Spodoptera littoralis, uptake by lettuce roots from agar, eggs; settings: 144 h, test rate of 12.5 ppm, 6 days after infestation, read-out: effect in at least one of the three categories (mortality, anti-feeding, or growth inhibition)
Excerpt: Example B9: Spodoptera littoralis (Egyptian Cotton Leaf Worm)
Test compounds were applied by pipette from 10′000 ppm DMSO stock solutions into 24-well plates and mixed with agar. Lettuce seeds were placed onto the agar and the multi well plate was closed by another plate which contained also agar. After 7 days the compound was absorbed by the roots and the lettuce grew into the lid plate. The lettuce leaves were then cut off into the lid plate. Spodoptera eggs were pipetted through a plastic stencil onto a humid gel blotting paper and the lid plate was closed with it. The samples were assessed for mortality, anti-feedant effect and growth inhibition in comparison to untreated samples 6 days after infestation.

[7] = test system: Plutella xylostella (Diamond Back Moth); assay: Plutella xylostella, artificial diet, L2 larvae; settings: 120 h, application rate of 200 ppm, 5 days after infestation, read-out: effect in at least one of the two categories (mortality or growth inhibition)
Description: Example B7: Plutella xylostella (Diamond Back Moth)
24-well microtiter plates with artificial diet were treated with aqueous test solutions prepared from 10′000 ppm DMSO stock solutions by pipetting. After drying, the plates were infested with L2 larvae (10 to 15 per well). The samples were assessed for mortality and growth inhibition in comparison to untreated samples 5 days after infestation.

[8] = test system: Tetranychus urticae (Two-Spotted Spider Mite); assay: Tetranychus urticae feeding/contact activity, bean leaf discs; settings: foliar, 192 h
Description: Example B10: Tetranychus urticae (Two-Spotted Spider Mite): Feeding/Contact Activity
Bean leaf discs on agar in 24-well microtiter plates were sprayed with aqueous test solutions prepared from 10′000 ppm DMSO stock solutions. After drying the leaf discs were infested with a mite population of mixed ages. The samples were assessed for mortality on mixed population (mobile stages) 8 days after infestation.

[9] = test system: Myzus persicae (Green Peach Aphid); assay: Myzus persicae feeding/contact activity, sunflower leaf discs; settings: foliar, 144 h, application rate of 200 ppm, 6 days after infestation
Description: Example B5: Myzus persicae (Green Peach Aphid): Feeding/Contact Activity
Sunflower leaf discs were placed onto agar in a 24-well microtiter plate and sprayed with aqueous test solutions prepared from 10′000 ppm DMSO stock solutions. After drying, the leaf discs were infested with an aphid population of mixed ages. The samples were assessed for mortality 6 days after infestation.

[10] = test system: Diabrotica balteata (Corn Root Worm); assay: Diabrotica balteata, maize sprouts on agar, L2 larvae; settings: 96 h, application rate of 200 ppm, 4 days after infestation, read-out: effect in at least one of the two categories (mortality or growth inhibition)
Description: Example B2: Diabrotica balteata (Corn Root Worm)
Maize sprouts placed onto an agar layer in 24-well microtiter plates were treated with aqueous test solutions prepared from 10′000 ppm DMSO stock solutions by spraying. After drying, the plates were infested with L2 larvae (6 to 10 per well). The samples were assessed for mortality and growth inhibition in comparison to untreated samples 4 days after infestation.

CCS(=O)(=O)c1ccc(-n2cncn2)nc1-c1nc2cc(C(F)(F)F)n(C3CC3)c(=O)c2n1C [Compound P4, 5-cyclopropyl-2-[3-ethylsulfonyl-6-(1,2,4-triazol-1-yl)-2-pyridyl]-3-methyl-6-(trifluoromethyl)imidazo[4,5-c]pyridin-4-one]
≥ 80%: mortality at 24 ppm [1] | percent control (mortality, anti-feedant effect or growth inhibition) at 200 ppm [2] | mortality at 200 ppm [3] | percent effect (mortality or growth inhibition) at 200 ppm [4] | mortality at 200 ppm [5] | percent effect (mortality, anti-feeding or growth inhibition) at 12.5 ppm [6] | percent effect (mortality or growth inhibition) at 200 ppm [7] | mortality at 200 ppm [8] | mortality at 200 ppm [9] | percent effect (mortality or growth inhibition) at 200 ppm [10]
